Measured values taken from US20140155445A1, “Compounds and Methods for Treating Cancer and Diseases of the Central Nervous System” (Osta Biotechnologies Inc., priority 2007, published 2014).
Where a name gives a salt, the structure may show the parent alone. Read-outs that look alike come from different tables or passages of the source.

Columns and labels:
[1] = molecular target: T1, HO-2 (rat brain) (Rattus norvegicus, UniProt P23711); assay: HO enzymatic activity in rat brain microsomal fraction (CO formed from methemalbumin, gas chromatography); assay type: biochemical
T1 construct: brain microsomes were used as a source of HO-2; from tissue; host or cells: brain microsomal fraction of adult male Sprague-Dawley rats
T1 sequence (P23711 1-315): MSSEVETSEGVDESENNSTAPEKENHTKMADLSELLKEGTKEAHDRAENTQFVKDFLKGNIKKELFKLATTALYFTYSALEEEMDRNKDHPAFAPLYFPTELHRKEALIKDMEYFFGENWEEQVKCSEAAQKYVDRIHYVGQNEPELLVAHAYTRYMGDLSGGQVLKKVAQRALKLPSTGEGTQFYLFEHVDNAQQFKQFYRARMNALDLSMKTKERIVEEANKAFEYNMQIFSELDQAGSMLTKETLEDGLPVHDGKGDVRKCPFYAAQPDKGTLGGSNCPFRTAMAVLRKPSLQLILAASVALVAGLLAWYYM

[2] = molecular target: T2, HO-1 (rat spleen) (Rattus norvegicus, UniProt P06762); assay: HO enzymatic activity in rat spleen microsomal fraction (CO formed from methemalbumin, gas chromatography); assay type: biochemical
T2 construct: Spleen microsomes were used as a source of HO-1; from tissue; host or cells: spleen microsomal fraction of adult male Sprague-Dawley rats
T2 sequence (P06762 1-289): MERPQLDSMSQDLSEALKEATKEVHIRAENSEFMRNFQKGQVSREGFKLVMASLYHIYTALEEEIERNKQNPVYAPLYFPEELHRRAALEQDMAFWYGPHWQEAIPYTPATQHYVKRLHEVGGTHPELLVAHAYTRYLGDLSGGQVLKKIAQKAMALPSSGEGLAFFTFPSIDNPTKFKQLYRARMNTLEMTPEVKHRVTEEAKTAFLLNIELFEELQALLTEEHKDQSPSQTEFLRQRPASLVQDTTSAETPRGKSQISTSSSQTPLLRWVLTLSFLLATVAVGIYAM

[3] = rat brain microsomes, average ± standard deviation of replicate experiments, read-out: IC50 HO-2 (rat brain)/μM
[4] = rat spleen microsomes, average ± standard deviation of replicate experiments, read-out: IC50 HO-1 (rat spleen)/μM

| SMILES | IC50 [1, 3] [µM] | IC50 [2, 4] [µM] | IC50 [1] [µM] | IC50 [2] [µM] | IC50 HO-2 (rat brain)/μM ([1]; rat brain microsomes, average ± standard deviation of replicate experiments) |
| --- | --- | --- | --- | --- | --- |
| c1cn(CCCCCCCCn2ccnc2)cn1 [1,8-bis-(1H-imidazol-1-yl)octane dihydrochloride] | > 100 | > 100 |  |  |  |
| O=C(CCc1ccc(C(F)(F)F)cc1)Cn1ccnc1 [4-(4-(Trifluoromethyl)phenyl)-1-(1H-imidazol-1-yl)-2-butanone hydrochloride] | 1.4 ± 0.1 | 0.25 ± 0.01 |  |  |  |
| OC(CCc1ccccc1)Cn1ncnn1 (racemic) [(±)-4-phenyl-1-tetrazol-2-yl-butan-2-ol hydrochloride] |  |  | > 100 | > 100 |  |
| Nc1cccc(SC[C@@H]2CO[C@@](CCc3ccc(Cl)cc3)(Cn3ccnc3)O2)c1 [(2R,4S)-2-[2-(4-chlorophenyl)ethyl]-2-[(1H-imidazol-1-yl)methyl]-4-[{(3-aminophenyl]-4-[{(3-aminophenyl)thio}meth-yl]-1,3-dioxolane hydrochloride] | 6 ± 1 | 4 ± 2 |  |  |  |
| C[C@H]1CO[C@](CCc2ccc(Cl)cc2)(Cn2ccnc2)O1 [(2S,4S)-2-[2-(4-chlorophenyl)ethyl]-2-[(1H-imidazol-1-yl)methyl]-4-methyl-1,3-dioxolane hydrochloride] | > 100 | 12 ± 4 |  |  |  |
| OC(CCc1ccccc1)Cn1cncn1 (racemic) [(±)-4-phenyl-1-[1,2,4]triazol-1-yl-butan-2-ol hydrochloride] |  | 10.2 ± 0.2 | 54 ± 12 |  |  |
| O=C(Cn1ccnc1)c1ccc2ccc3cccc4ccc1c2c34 [2-Imidazol-1-yl-1-pyren-1-yl-ethanone hydrochloride] | > 100 | 14 ± 3 |  |  |  |
| c1ccc(OCCCn2ccnc2)cc1 [1-(3-phenoxy-propyl)-1H-imidazole hydrochloride] | 206 ± 96 | 42 ± 13 |  |  |  |
| Oc1ccc(SC[C@@H]2CO[C@@](CCc3ccc(Cl)cc3)(Cn3ccnc3)O2)cc1 [(2R,4S)-2-[2-(4-chlorophenyl)ethyl]-2-[(1H-imidazol-1-yl)methyl]-4-[{(4-hydroxyphenyl)thio}methyl]-1,3-dioxolane] | 7 ± 2 | 1.59 ± 0.03 |  |  |  |
| O=C(CCc1ccccc1)Cn1cnc(Cl)c1Cl [1-(4,5-Dichloro-imidazol-1-yl)-4-phenyl-butan-2-one hydrochloride] | > 100 | > 100 |  |  |  |
| Clc1ccc(/C(Cn2ccnc2)=N\Nc2ccccc2)cc1 | > 100 | > 100 |  |  |  |
| c1ccc(SCCCCn2ccnc2)cc1 [1-(4-phenylsulfanyl-butyl)-1H-imidazole hydrochloride] | 5 ± 3 | 1.2 ± 0.2 |  |  |  |
| c1ccc(CSCCn2ccnc2)cc1 [1-(2-benzylsulfanyl-ethyl)-1H-imidazole] | > 10 | 4 ± 1 |  |  |  |
| O=C(Cn1ccnc1)c1cccs1 | > 100 | > 100 |  |  |  |
| O=C(Cn1cncn1)c1ccc2c(c1)OCCO2 | > 100 | 18 ± 4 |  |  |  |
| O=C(Cn1cncn1)c1ccc([N+](=O)[O-])cc1 [1-(4-Nitro-phenyl)-2-[1,2,4]triazol-1-yl-ethanone hydrochloride] | > 100 | 19.2 ± 0.5 |  |  |  |
| CCOC(=O)N1CCC(Nc2nc3ccccc3[nH]2)CC1 | > 100 | > 100 |  |  |  |
| O=C1c2ccccc2CC1n1ccnc1 (racemic) [(±)-2-imidazol-1-yl-indan-1-one hydrochloride] | > 100 | > 100 |  |  |  |
| Clc1ccc(C2(Cn3ccnc3)OCCO2)c(Cl)c1 [1-[2-(2,4-dichloro-phenyl)-[1,3]dioxolan-2-ylmethyl]-1H-imidazole hydrochloride] | > 100 | 29 ± 14 |  |  |  |
| O=C(CCc1ccccc1)Cn1nc2ccccc2n1 [1-Benzotriazol-2-yl-4-phenyl-butan-2-one] | > 100 | > 100 |  |  |  |
| CS(=O)(=O)c1nnnn1CC(=O)CCc1ccccc1 [1-(5-Methanesulfonyl-tetrazol-1-yl)-4-phenyl-butan-2-one] | > 100 | > 100 |  |  |  |
| COC(=O)Nc1nc2ccc(C(=O)c3cccs3)cc2[nH]1 [Nocodazole, reference compound] | > 100 | > 100 |  |  |  |
| COc1ccc(SC[C@@H]2CO[C@@](CCc3ccc(Cl)cc3)(Cn3ccnc3)O2)cc1 [(2R,4S)-2-[2-(4-chlorophenyl)ethyl]-2-[(1H-imidazol-1-yl)methyl]-4-[{(4-methoxyphenyl)thio}methyl]-1,3-dioxolane hydrochloride] | 2.5 ± 0.4 | 0.7 ± 0.3 |  |  |  |
| Nc1ccc(OCC2CO[C@@](CCc3ccc(Cl)cc3)(Cn3ccnc3)O2)cc1 (stereo in doubt) [(2R,4S)-2-[2-(4-chlorophenyl)ethyl]-2-[(1H-imidazol-1-yl)methyl]-4-[(4-aminophenyloxy)meth-yl]-1,3-dioxolane dihydrochloride] | 13 ± 4 | 1.4 ± 0.3 |  |  |  |

| SMILES | IC50 [1, 3] [µM] | IC50 [2, 4] [µM] | IC50 [1] [µM] | IC50 [2] [µM] | IC50 HO-2 (rat brain)/μM ([1]; rat brain microsomes, average ± standard deviation of replicate experiments) |
| --- | --- | --- | --- | --- | --- |
| c1cn(C2C3CC4CC(C3)CC2C4)cn1 (stereo not shown) | > 100 | > 100 |  |  |  |
| Clc1ccc(CC[C@@]2(Cn3ccnc3)OCC(COc3ccc(Br)cc3)O2)cc1 (stereo in doubt) [(2R,4S)-1-{4-(4-bromo-phenoxymethyl)-2-[2-(4-chloro-phenyl)-ethyl]-[1,3]dioxolan-2-ylmethyl}-1H-imidazole hydrochloride] | 22 ± 8 | 3.5 ± 0.2 |  |  |  |
| Brc1cccc(C2(Cn3ccnc3)OCCO2)c1 [1-[2-(3-bromo-phenyl)-[1,3]dioxolan-2-ylmethyl]-1H-imidazole hydrochloride] | > 100 | 4 ± 0.7 |  |  |  |
| OC(CCc1ccccc1)Cn1cnnn1 (racemic) [(±)-4-phenyl-1-tetrazol-1-yl-butan-2-ol hydrochloride] | > 100 | 56 ± 6 |  |  |  |
| c1ccc(CCC2(Cn3ncnn3)OCCO2)cc1 [2-(2-Phenethyl-[1,3]dioxolan-2-ylmethyl)-2H-tetrazole hydrochloride] | > 100 | 72 ± 1 |  |  |  |
| COc1ccc(CCN2CCC(Nc3nc4cc(C)c(C)cc4n3Cc3ccc(F)cc3)CC2)cc1 | 91 ± 45 | > 100 |  |  |  |
| O=C(CCc1ccccc1)Cn1nnnc1-c1ccccc1 [4-Phenyl-1-(5-phenyl-tetrazol-1-yl)-butan-2-one] | > 100 | > 100 |  |  |  |
| O=C(/C(=N/O)n1ccnc1)c1ccc(Cl)cc1 | 103 ± 41 | 103 ± 2 |  |  |  |
| O=C(Cn1cncn1)c1ccc(-c2ccccc2)cc1 [1-Biphenyl-4-yl-2-[1,2,4]triazol-1-yl-ethanone] | 7 ± 4 | 0.74 ± 0.05 |  |  |  |
| O=C(Cn1cncn1)c1ccc(Cl)cc1Cl [1-(2,4-dichloro-phenyl)-2-[1,2,4]triazol-1-yl-ethanone] | > 100 | 4.1 ± 0.9 |  |  |  |
| CSc1ncn(CC(=O)CCc2ccccc2)n1 [1-(3-Methylsulfanyl-[1,2,4]triazol-1-yl)-4-phenyl-butan-2-one] | > 100 | > 100 |  |  |  |
| O=C(Cn1cnnc1)c1ccc(Cl)cc1 | > 100 | > 100 |  |  |  |
| O=C(Cn1ccnc1)c1ccc(Cc2ccccc2)cc1 [1-(4-benzyl-phenyl)-2-imidazol-1-yl-ethanone hydrochloride] | 2.3 ± 0.2 | 1.99 ± 0.05 |  |  |  |
| O=C(CCc1ccc([N+](=O)[O-])cc1)Cn1ccnc1 [1-(1H-Imidazol-1-yl)-4-(4-nitro-phenyl)-butan-2-one hydrochloride] | 6.2 ± 0.1 | 1.8 ± 0.4 |  |  |  |
| c1ccc(CCC2(Cn3cnnn3)OCCO2)cc1 [1-(2-Phenethyl-[1,3]dioxolan-2-ylmethyl)-1H-tetrazole hydrochloride] | > 100 | 39 ± 5 |  |  |  |
| O=C(CCc1ccccc1)Cn1cnc(-c2ccccc2)c1-c1ccccc1 [1-(4,5-Diphenyl-imidazol-1-yl)-4-phenyl-butan-2-one hydrochloride] | > 100 | 40 ± 2 |  |  |  |
| COc1ccc(CCN2CCC(Nc3nc4ccccc4[nH]3)CC2)cc1 |  |  | > 100 | > 100 |  |
| O=C(CCc1ccccc1)Cn1cnc(-c2ccccc2)c1 [drawing 256, 4-Phenyl-1-(4-phenyl-1H-imidazol-1-yl)-butan-2-one hydrochloride] | > 100 | 32 ± 2 |  |  |  |
| CC(=O)C(Cc1ccccc1)n1cncn1 (racemic) [(±)-4-phenyl-3-[1,2,4]triazol-1-yl-butan-2-one] |  | > 100 |  |  | INACTIVE |
| c1cn(CCC23CC4CC(CC(C4)C2)C3)cn1 [1-(2-adamantan-1-yl-ethyl)-1H-imidazole hydrochloride] | > 100 | 3 ± 1 |  |  |  |
| Clc1ccc(CC[C@@]2(Cn3ccnc3)OC[C@@H](CSc3ccc(Cl)cc3)O2)cc1 [(2R,4S)-2-[2-(4-chlorophenyl)ethyl]-2-[(1H-imidazol-1-yl)methyl]-4-[{(4-chlorophenyl)thio}meth-yl]-1,3-dioxolane hydrochloride] | 12 ± 5 | 2.8 ± 0.4 |  |  |  |
| Clc1ccc(C2(Cn3ccnc3)OCCO2)cc1Cl [1-[2-(3,4-dichloro-phenyl)-[1,3]dioxolan-2-ylmethyl]-1H-imidazole] | > 100 | 8 ± 2 |  |  |  |
| OC(CCn1ccnc1)C12CC3CC(CC(C3)C1)C2 (racemic) [(±)-1-adamantan-1-yl-3-imidazol-1-yl-propan-1-ol hydrochloride] | 6.5 ± 0.1 | 2 ± 0.6 |  |  |  |
